Test [1] addresses human dopamine D2 receptor (hD2R) (Homo sapiens, UniProt P14416). As to the kind of experiment: Human D2 receptor binding assay ([^3H]-Spiperone). The note with it: CHO cells expressing hD2R, geometric mean of 2-5 determinations unless marked b (single determination). As for the experimental part:
(§1) Human D2 Receptor and Human D3 Receptor Binding Assays:
(§2) These determined ligand and tissue concentrations were utilized in time course studies to determine linearity and equilibrium conditions for binding. […] The hD2R assay buffer contains 50 mM Tris (pH 7.4 @ 37° C.), 100 mM NaCl and 1 mM MgCl2. The hD3R assay buffer consists of 50 mM Tris (pH 7.4 at 37° C.), 120 mM NaCl, 5 mM MgCl2, 5 mM KCl and 2 mM CaCl2. Competitive binding experiments were initiated by the addition of 200 μL of the respective cell homogenate to 96-well plates containing […] test drugs (10 concentrations using ½ log dilutions) and 50 μL of ^3H-radioligand for a final volume of 250 μL. Non-specific binding was determined by radioligand binding in the presence of a saturating concentration of Haldol (10 μM). After the 20 minute incubation at 37° C., assay samples were rapidly filtered through Unifilter-96 GF/B PEI-coated filter plates and rinsed with ice-cold 50 mM Tris buffer (pH 7.4 at 4° C.). […] The IC50 value (concentration at which 50% inhibition of specific binding occurs) was calculated by linear regression of the concentration-response data in ActivityBase. Ki values were then calculated according to the Cheng-Prusoff equation:
(§3) [formula] where [L]=concentration of free radioligand and Kd=dissociation constant of radioligand for D3 receptor or D2 receptor.

Test [2] concerns the target human dopamine D3 receptor (hD3R) (Homo sapiens, UniProt P35462). The test can be described thus: Human D3 receptor binding assay ([^3H]-7-OH-DPAT). The note with it: CHO cells expressing hD3R, geometric mean of 2-5 determinations unless marked b (single determination), read-out: hD3 in CHO cells Ki. The procedure:
as §1, §2, §3

In patent US10590128B2, “6,7,8,9-tetrahydro-5H-pyrido[2,3-d]azepine dopamine D3 ligands” (Pfizer Inc., priority 2016, dated 2020) one finds Ki data, which are given here for 27 compounds.

As usually defined, the Ki is a measure of affinity in units of concentration, obtained from inhibition or displacement.

Sequence of human dopamine D3 receptor (hD3R) (P35462 whole entry): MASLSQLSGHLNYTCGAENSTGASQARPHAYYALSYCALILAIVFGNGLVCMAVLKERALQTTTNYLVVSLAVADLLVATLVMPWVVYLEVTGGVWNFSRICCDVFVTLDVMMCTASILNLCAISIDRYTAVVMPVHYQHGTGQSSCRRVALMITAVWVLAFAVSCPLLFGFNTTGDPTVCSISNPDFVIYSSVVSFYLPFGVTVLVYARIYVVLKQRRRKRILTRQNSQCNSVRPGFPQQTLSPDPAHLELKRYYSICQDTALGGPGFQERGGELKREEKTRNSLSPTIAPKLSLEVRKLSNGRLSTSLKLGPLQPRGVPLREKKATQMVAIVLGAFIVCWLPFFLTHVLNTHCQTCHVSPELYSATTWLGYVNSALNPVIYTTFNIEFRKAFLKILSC
Sequence of human dopamine D2 receptor (hD2R) (P14416 whole entry): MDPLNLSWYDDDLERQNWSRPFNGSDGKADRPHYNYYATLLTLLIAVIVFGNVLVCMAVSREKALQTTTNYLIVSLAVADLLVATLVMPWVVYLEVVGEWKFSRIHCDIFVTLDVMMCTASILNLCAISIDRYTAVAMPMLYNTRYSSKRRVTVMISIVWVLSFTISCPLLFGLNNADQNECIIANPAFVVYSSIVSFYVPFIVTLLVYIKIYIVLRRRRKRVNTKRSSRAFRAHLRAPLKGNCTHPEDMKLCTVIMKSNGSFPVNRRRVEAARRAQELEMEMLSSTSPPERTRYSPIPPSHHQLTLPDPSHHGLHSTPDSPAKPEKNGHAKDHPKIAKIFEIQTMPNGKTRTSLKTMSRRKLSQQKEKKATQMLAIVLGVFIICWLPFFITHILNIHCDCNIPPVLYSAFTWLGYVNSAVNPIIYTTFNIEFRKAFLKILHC

Regarding `COc1nc2c(cc1NS(=O)(=O)c1cnc(OC3CCC3)c(C)c1)CCN(C)CC2` [Example 126, 6-(cyclobutyloxy)-N-(2-methoxy-7-methyl-6,7,8,9-tetrahydro-5H-pyrido[2,3-d]azepin-3-yl)-5-methylpyridine-3-sulfonamide], the values for the Ki in test [1] and in test [2] were 10.9 nM and 1.85 nM, respectively.

As to `COc1nc2c(cc1NS(=O)(=O)c1ccc(C3COC3)cc1)CCN(C)CC2` [Example 33, N-(2-methoxy-7-methyl-6,7,8,9-tetrahydro-5H-pyrido[2,3-d]azepin-3-yl)-4-(oxetan-3-yl)benzenesulfonamide], in test [2], the Ki is 3.68 nM.

`CCOc1ccc(S(=O)(=O)Nc2cc3c(nc2OC)CCN(CC)CC3)cc1` [Example 52, 4-ethoxy-N-(7-ethyl-2-methoxy-6,7,8,9-tetrahydro-5H-pyrido[2,3-d]azepin-3-yl)benzenesulfonamide]: the Ki in test [1] amounted to 435 nM; in test [2], 2.56 nM.

Consider `CCN1CCc2cc(NS(=O)(=O)c3ccc(C)c(C)c3)c(OC)nc2CC1` [Example 61, N-(7-ethyl-2-methoxy-6,7,8,9-tetrahydro-5H-pyrido[2,3-d]azepin-3-yl)-3,4-dimethylbenzenesulfonamide], for which the Ki in test [1] amounted to 388 nM; in test [2], 2.33 nM.

`CCO[C@H]1C[C@H](c2ccc(S(=O)(=O)Nc3cc4c(nc3OC)CCN(C)CC4)cc2)C1` [Example 22, 4-(trans-3-ethoxycyclobutyl)-N-(2-methoxy-7-methyl-6,7,8,9-tetrahydro-5H-pyrido[2,3-d]azepin-3-yl)benzenesulfonamide]: the Ki in test [1] is 30.3 nM; in test [2] it was 2.64 nM.

Turning to `CCN1CCc2cc(NS(=O)(=O)c3ccc(C4CCCCC4)nc3)c(OC)nc2CC1` [Example 114, 6-cyclohexyl-N-(7-ethyl-2-methoxy-6,7,8,9-tetrahydro-5H-pyrido[2,3-d]azepin-3-yl)pyridine-3-sulfonamide], the Ki was determined as 146 nM in test [1] and 3.15 nM in test [2].

Consider `CCN1CCc2nc(OC)c(NS(=O)(=O)c3ccc(C)cc3)cc2C(C)C1` (centres unmarked) [Example 13, N-(7-ethyl-2-methoxy-5-methyl-6,7,8,9-tetrahydro-5H-pyrido[2,3-d]azepin-3-yl)-4-methylbenzenesulfonamide], for which the Ki came to 923 nM in test [1] and 10.8 nM in test [2].

`CCO[C@H]1C[C@@](F)(c2ccc(S(=O)(=O)Nc3cc4c(nc3OC)CCN(C)CC4)cc2)C1` [Example 132, 4-(trans-3-ethoxy-1-fluorocyclobutyl)-N-(2-methoxy-7-methyl-6,7,8,9-tetrahydro-5H-pyrido[2,3-d]azepin-3-yl)benzenesulfonamide]: the Ki is 367 nM in test [1] and 2.23 nM in test [2].

Turning to `COc1nc2c(cc1NS(=O)(=O)c1cnc(C3CCCCC3)nc1)CCN(C)CC2` [Example 127, 2-cyclohexyl-N-(2-methoxy-7-methyl-6,7,8,9-tetrahydro-5H-pyrido[2,3-d]azepin-3-yl)pyrimidine-5-sulfonamide], the Ki was 457 nM in test [1] and 32.2 nM in test [2].

As for `COc1nc2c(cc1NS(=O)(=O)c1ccc([C@]3(F)C[C@H](C)C3)nc1)CCN(C)CC2` [Example 136, 6-(trans-1-fluoro-3-methylcyclobutyl)-N-(2-methoxy-7-methyl-6,7,8,9-tetrahydro-5H-pyrido[2,3-d]azepin-3-yl)pyridine-3-sulfonamide], the Ki in test [1] stood at 1220 nM; in test [2], 7.46 nM.

For `COc1nc2c(cc1NS(=O)(=O)c1ccc(C3(OC)CCCC3)cc1)CCN(C)CC2` [Example 95, 4-(1-methoxycyclopentyl)-N-(2-methoxy-7-methyl-6,7,8,9-tetrahydro-5H-pyrido[2,3-d]azepin-3-yl)benzenesulfonamide], the Ki was found to be 45.3 nM in test [1] and 0.6 nM in test [2].

With `CCN1CCc2cc(NS(=O)(=O)c3ccc4c(c3)CCCO4)c(OC(C)C)nc2CC1` [Example 66, N-[7-ethyl-2-(propan-2-yloxy)-6,7,8,9-tetrahydro-5H-pyrido[2,3-d]azepin-3-yl]-3,4-dihydro-2H-chromene-6-sulfonamide], the inhibitory constant (Ki) in test [1] came out at 1460 nM; in test [2], 8.78 nM.

Consider `COc1nc2c(cc1NS(=O)(=O)c1ccc(C3CCCOC3)cc1)CCN(C)CC2` (single isomer, unassigned) [Example 84], for which the results for the Ki in test [1] and in test [2] were 503 nM and 4.58 nM, respectively.

For `CCCc1ccc(S(=O)(=O)Nc2cc3c(nc2OC)CCN(CC)CC3)cc1` [Example 62, N-(7-ethyl-2-methoxy-6,7,8,9-tetrahydro-5H-pyrido[2,3-d]azepin-3-yl)-4-propylbenzenesulfonamide], the Ki was 52.8 nM in test [1] and 0.4 nM in test [2].

With `CCN1CCc2cc(NS(=O)(=O)c3ccc([C@H]4C[C@@H](OC)C4)cc3)c(OC)nc2CC1` [Example 72, N-(7-ethyl-2-methoxy-6,7,8,9-tetrahydro-5H-pyrido[2,3-d]azepin-3-yl)-4-(cis-3-methoxycyclobutyl)benzenesulfonamide], the values for the Ki in test [1] and in test [2] were 420 nM and 2.65 nM, respectively.

For `CCOc1ccc(S(=O)(=O)Nc2cc3c(nc2OC(C)C)CCN(CC)CC3)cc1` [Example 14, 4-Ethoxy-N-[7-ethyl-2-(propan-2-yloxy)-6,7,8,9-tetrahydro-5H-pyrido[2,3-d]azepin-3-yl]benzenesulfonamide], the results for the Ki in test [1] and in test [2] were 36.6 nM and 3.81 nM, respectively.

Take `CCN1CCc2cc(NS(=O)(=O)c3ccc(C4CCOC4)cc3)c(OC)nc2CC1` (centres unmarked) [Example 71, N-(7-ethyl-2-methoxy-6,7,8,9-tetrahydro-5H-pyrido[2,3-d]azepin-3-yl)-4-(tetrahydrofuran-3-yl)benzenesulfonamide]: the Ki was 754 nM in test [1] and 4.84 nM in test [2].

As for `CCN1CCc2cc(NS(=O)(=O)c3ccc([C@H]4C[C@H](OC)C4)cc3)c(OC)nc2CC1` [Example 68, N-(7-ethyl-2-methoxy-6,7,8,9-tetrahydro-5H-pyrido[2,3-d]azepin-3-yl)-4-(trans-3-methoxycyclobutyl)benzenesulfonamide], the Ki stood at 338 nM in test [1] and 1.26 nM in test [2].

Consider `COc1nc2c(cc1NS(=O)(=O)c1cnc(OC3CCCC3)c(C)c1)CCN(C)CC2` [Example 124, 6-(cyclopentyloxy)-N-(2-methoxy-7-methyl-6,7,8,9-tetrahydro-5H-pyrido[2,3-d]azepin-3-yl)-5-methylpyridine-3-sulfonamide], for which the Ki was found to be 3.89 nM in test [1] and 0.79 nM in test [2].

As for `CCO[C@H]1C[C@@H](c2ccc(S(=O)(=O)Nc3cc4c(nc3OC)CCN(C)CC4)cc2)C1` [Example 21, 4-(cis-3-ethoxycyclobutyl)-N-(2-methoxy-7-methyl-6,7,8,9-tetrahydro-5H-pyrido[2,3-d]azepin-3-yl)benzenesulfonamide], the Ki in test [1] turned out to be 25.5 nM; in test [2], 0.967 nM.

With `COc1nc2c(cc1NS(=O)(=O)c1cnc(OC3CCCC3)nc1)CCN(C)CC2` [Example 18, 2-(cyclopentyloxy)-N-(2-methoxy-7-methyl-6,7,8,9-tetrahydro-5H-pyrido[2,3-d]azepin-3-yl)pyrimidine-5-sulfonamide], the Ki in test [1] was determined as 142 nM; in test [2], 3.58 nM.

As to `COc1nc2c(cc1NS(=O)(=O)c1ccc(C3CCOC3)cc1)CCN(C)CC2` (centres unmarked) [Example 36, N-(2-methoxy-7-methyl-6,7,8,9-tetrahydro-5H-pyrido[2,3-d]azepin-3-yl)-4-(tetrahydrofuran-3-yl)benzenesulfonamide], the Ki in test [1] is 260 nM; in test [2], 3.29 nM.

For `CCN1CCc2cc(NS(=O)(=O)c3ccc([C@]4(F)C[C@H](OC)C4)cc3)c(OC)nc2CC1` [Example 96, N-(7-ethyl-2-methoxy-6,7,8,9-tetrahydro-5H-pyrido[2,3-d]azepin-3-yl)-4-(trans-1-fluoro-3-methoxycyclobutyl)benzenesulfonamide], the Ki in test [1] is 317 nM; in test [2], 2.79 nM.

As to `COc1nc2c(cc1NS(=O)(=O)c1cnc(OC3CCCC3)c(F)c1)CCN(C)CC2` [Example 130, 6-(cyclopentyloxy)-5-fluoro-N-(2-methoxy-7-methyl-6,7,8,9-tetrahydro-5H-pyrido[2,3-d]azepin-3-yl)pyridine-3-sulfonamide], the Ki in test [1] stood at 25.2 nM; in test [2], 1.69 nM.

Consider `COc1nc2c(cc1NS(=O)(=O)c1ccc(C)cc1)CCN(CCCF)CC2` [Example 115, N-[7-(3-fluoropropyl)-2-methoxy-6,7,8,9-tetrahydro-5H-pyrido[2,3-d]azepin-3-yl]-4-methylbenzenesulfonamide], for which the values for the Ki in test [1] and in test [2] were 213 nM and 14.8 nM, respectively.

On to `CCN1CCc2cc(NS(=O)(=O)c3ccc(C4CCCCO4)cc3)c(OC)nc2CC1` (single isomer, unassigned) [Example 73], for which the Ki was 1040 nM in test [1] and 4.41 nM in test [2].

Regarding `COc1nc2c(cc1NS(=O)(=O)c1ccc([C@]3(F)C[C@H](OC)C3)cc1)CCN(C)CC2` [Example 10, 4-(trans-1-Fluoro-3-methoxycyclobutyl)-N-(2-methoxy-7-methyl-6,7,8,9-tetrahydro-5H-pyrido[2,3-d]azepin-3-yl)benzenesulfonamide], the Ki stood at 99 nM in test [1] and 1.16 nM in test [2].
